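Exposure lasted 48 hours, with cells grown in 96-well plates and compounds tested at five concentrations. GI50 is the concentration that inhibits growth by half. TGI marks complete inhibition of growth.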
Legend:
Test in all cases: inhibition of tumour cell growth, NCI panel, 48 h
HOP-18 NSCLC = system: HOP-18 NSCLC
LXFL 529 NSCLC = system: LXFL 529 NSCLC
RXF-631 renal = system: RXF-631 renal
DLD-1 colon = system: DLD-1 colon
DMS 273 small cell lung = system: DMS 273 small cell lung
XF 498 CNS = system: XF 498 CNS
HS 578T breast = system: HS 578T breast
BT-549 breast = system: BT-549 breast
MDA-N = system: MDA-N

Row | Compound | TGI (LXFL 529 NSCLC) [µM] | TGI (DLD-1 colon) [µM] | TGI (DMS 273 small cell lung) [µM] | GI50 (HS 578T breast) [µM] | TGI (HS 578T breast) [µM] | GI50 (BT-549 breast) [µM] | TGI (BT-549 breast) [µM] | other results
1 | CCOC(=O)NC(=O)c1cn(C2CCCCC2)c(=O)n(C)c1=O | > 100 | > 100 | > 100 |  |  |  |  | TGI (HOP-18 NSCLC): > 100 µM; TGI (RXF-631 renal): > 100 µM
2 | CCCCCCCCCCNC(=S)OC | > 100 | > 100 | > 100 |  |  |  |  | TGI (HOP-18 NSCLC): > 100 µM; TGI (RXF-631 renal): > 100 µM
3 | CC(=O)O[C@H]1CC[C@@]2(C)C(=CC[C@H]3C(CC#N)[C@@](C)(C#N)CCC32)C1 (stereo partly specified) | > 100 | > 100 | > 100 |  |  |  |  | TGI (XF 498 CNS): > 100 µM
4 | COC(=O)[C@@H](C)C[C@H](Cc1ccc(F)cc1)NC(=O)c1csc([C@@H](C[C@H](C(C)C)N(C)C(=O)[C@@H](NC(=O)[C@H]2CCCCN2C)C2CC2)OC(C)=O)n1 |  |  |  | 0.307 | > 7.76 | 0.188 | 3.72 | 
5 | COc1ccc2c(c1)C(=O)/C(=C/c1ccc(O)cc1)O2 |  |  |  | 28.6 | > 86.3 | 12.7 | 29.8 | 
6 | CC(=O)N(N=O)c1ccc(N(N=O)C(C)=O)cc1 | > 100 | > 100 | > 100 |  |  |  |  | 
7 | COc1cc(OCCCN2CCCC2)ccc1Nc1ncc(Cl)c(Nc2ccccc2P(C)(C)=O)n1 |  |  |  | 2.22 | 10 | 3.86 | 11.7 | 
8 | C/C(=N\NC(=O)c1ccccc1O)c1c(O)cc(C)oc1=O | > 100 | > 100 |  |  |  |  |  | TGI (HOP-18 NSCLC): > 100 µM
9 | COc1ccc(-c2c(NC(=O)Nc3ccc(Cl)c(C(F)(F)F)c3)cnn2-c2ccc(S(N)(=O)=O)cc2)cc1 |  |  |  | 3.41 | 16.9 | 1.81 | 4.4 | 
10 | Cc1ccc(NC(=O)C(=O)C2C(=O)NC(=O)NC2=O)c(C)c1 | > 100 | > 100 | > 100 |  |  |  |  | TGI (HOP-18 NSCLC): > 100 µM; TGI (RXF-631 renal): > 100 µM
11 | CC(=O)OC1CC2C(C)(C)C(=O)C=C[C@]2(C)C2CCC3(C)C(c4ccoc4)C(=O)C4OC43[C@]12C (stereo partly specified) | > 100 | 34 | 75.6 |  |  |  |  | TGI (HOP-18 NSCLC): > 100 µM
12 | C=C1C2CC(OC(C)=O)C3(C)C(c4ccoc4)OC(=O)[C@@H](O)[C@]13OC1C[C@H](OC(C)=O)C(C)(C)[C@H](C(O)C(=O)OC)[C@]12C (stereo partly specified) | > 100 | > 100 | > 100 |  |  |  |  | TGI (HOP-18 NSCLC): > 100 µM
13 | Nc1ccc(C(=O)CC2(O)C(=O)Nc3ccccc32)cc1 (stereo unspecified) | > 100 | > 100 | > 100 |  |  |  |  | TGI (XF 498 CNS): > 100 µM
14 | C=C[C@@H]1CCC/C=C/[C@@H]2C[C@H](O)C[C@H]2[C@H](O)/C=C/C(=O)O1 |  |  |  | 0.477 | > 100 | 0.543 | > 37.1 | 
15 | COc1cc(/C=C/C(=O)c2ccccc2O)ccc1OCCCOc1cc2c(cc1OC)C(=O)N1CCC[C@H]1C=N2 |  |  |  | 0.054 | 0.284 | 0.0179 | 0.0476 | 
16 | COc1cccc(/C=C2\N=C(Cl)OC2=O)c1O | > 100 | > 100 | > 100 |  |  |  |  | TGI (HOP-18 NSCLC): > 100 µM; TGI (XF 498 CNS): > 100 µM
17 | CC1=NC(C)=C(/C(C)=N/NC(=O)c2ccccc2O)C(C)/C1=C(/C)NNC(=O)c1ccccc1O (stereo unspecified) | > 100 | > 100 |  |  |  |  |  | TGI (RXF-631 renal): > 100 µM; TGI (XF 498 CNS): 85.9 µM
18 | FC(F)(F)c1cccc(Oc2ccc(Nc3ncnc4ccc(OCCCN5CCOCC5)cc34)cc2Cl)c1 |  |  |  |  |  | 3.09 | 16.7 | 

Row | Compound | TGI (LXFL 529 NSCLC) [µM] | TGI (DLD-1 colon) [µM] | TGI (DMS 273 small cell lung) [µM] | GI50 (HS 578T breast) [µM] | TGI (HS 578T breast) [µM] | GI50 (BT-549 breast) [µM] | TGI (BT-549 breast) [µM] | other results
19 | O=C(Nc1ccc(Cl)cc1)c1cc(NCc2cc(O)ccc2O)ccc1O |  |  |  | 9.12 | 55.7 | 1.42 | 3.57 | 
20 | CN1C(c2ccccc2)CC(=NO)CC1c1ccccc1 (stereo unspecified) | > 100 | > 100 | > 100 |  |  |  |  | GI50 (MDA-N): 76 µM; TGI (RXF-631 renal): > 100 µM
21 | CCOc1ccc(Nc2ccnc3cc(Cl)ccc23)cc1 |  |  |  | 38.6 | > 100 | > 100 | > 100 | 
22 | COc1ccc(OC)c(-c2cc(-c3ccc(Cl)cc3)nn2-c2ccccc2)c1 |  |  |  | 18.5 | > 100 | 28.8 | 84.4 | 
23 | C=CCC1(CN(C)C)CC/C(=C\c2cc(OC)c(OC)c(OC)c2)C1=O (stereo unspecified) | 35.2 | 38.5 |  |  |  |  |  | TGI (HOP-18 NSCLC): > 100 µM; TGI (RXF-631 renal): 60.9 µM
24 | O=c1cccccc1O |  |  |  |  | > 100 |  | > 100 | TGI (MDA-N): > 100 µM
25 | C[C@]12CC[C@@H]3c4ccc(O)cc4CC[C@H]3[C@@H]1CC(Cc1ccccc1)(Cc1ccccc1)C2=O |  |  |  | 30.9 | > 100 | 18.8 | 38.7 | 
26 | CCCCSC1CCSc2c1ccc1ccccc21 (stereo unspecified) |  | > 100 |  |  |  |  |  | TGI (HOP-18 NSCLC): > 100 µM; TGI (XF 498 CNS): 63.9 µM
27 | NCCCNCc1c2ccccc2c(CNCCCN)c2ccccc12 | 24.5 | > 100 |  |  |  |  |  | TGI (HOP-18 NSCLC): 75 µM
28 | Cc1cc2[nH]c(=O)c3c4ncccc4cn3c2cc1C |  |  |  | 5.93 | 52.2 | 14.5 | 41.4 | 
29 | COc1cccc(C2SC(C)C(=O)N2NC(=O)C(O)c2ccccc2)c1 (stereo unspecified) |  |  |  | > 100 | > 100 | > 100 | > 100 | 
30 | CC(C)(C)c1cc[n+](C[n+]2ccc(C(C)(C)C)cc2)cc1 |  |  |  |  | > 100 |  |  | TGI (MDA-N): > 100 µM
31 | NC(=O)c1ccc(I)c([N+](=O)[O-])c1 |  |  |  | > 66.2 | > 100 | > 100 | > 100 | 
32 | O=C(O)C(Cc1ccccc1)N=Cc1nc(-c2ccccc2)oc1O (stereo unspecified) | > 100 | > 100 | > 100 |  |  |  |  | TGI (RXF-631 renal): > 100 µM
33 | COc1cc(/C=C2\C[C@H]3[C@@H]4CC=C5C[C@@H](O)CC[C@]5(C)[C@H]4CC[C@]3(C)[C@H]2O)ccc1OCCN1CCCCC1 |  |  |  | 1.44 | > 10.7 | 1.18 | 2.49 | 
34 | O=c1oc2ccc(F)cc2c(=O)n1-c1ccc(I)cc1F |  |  |  | 0.352 | 2.52 | 0.486 | 4.09 | 
35 | Cc1cc(C)c([I+]c2c(C)cc(C)cc2C)c(C)c1 |  |  |  | 0.795 | 2.68 | 0.466 | 1.59 | 

— PubChem BioAssay (NCI)
